Several values for one entry are separate records, joined by “and”; a condition that tells them apart may be missing. Equal values may be shown once. Read-outs that look alike come from different tables or passages of the source.
Test: Mice pharmacokinetic evaluation (LC-MS/MS of plasma)
Format: in vivo, ICR mice
Settings: for Cmax: read-out: Cmax; for Plasma concentration of active compound: listed as Mol
Protocol: Mice pharmacokinetic evaluation of the compound of Example 36 according to the method described below
ICR mice, SPS grade, male, weighed […], license number SCXK (Beijing) 2012-0001, purchased from Beijing Vital River Laboratory Animal Technology Co. Ltd.
Chromatographic conditions: Analytical column: Capcell Pak MG, 5 μm particle size, 50×2.0 mm I.D. (Shiseido Co.), connected with C18 guard column, 4×3.0 mm I.D. (PhenomenexCo., USA), column temperature 25° C., mobile phase: acetonitrile −2 mM ammonium acetate (65:35, v/v), flow rate 0.3 ml/min, internal standard: loratadine.
MS conditions: Electrospray ionization source (Turbo Ionspray source), positive ion mode detection; spray voltage 4500 V; source temperature 400° C.; nebulizer gas (NEB) 8; curtain gas (CUR) 10; collision gas (CAD) 4; scanning mode: multiple reaction monitoring (MRM), ion reactions for quantitative analysis: m/z 354.4→m/z 154.1 (Mol, CE 43 V) and m/z 383→m/z 337 (internal standard loratadine, CE 32 V), scanning time 150 msec.
To 50 μl of plasma, were added 10 μl of internal standard solution (125 ng/ml aqueous solution of loratadine), and 500 μl of n-hexane-dichloromethane-isopropanol (100:50:5, v/v/v); they were uniformly mixed, followed by vortexing for 3 min, and centrifuging for 10 min (3000 rpm); the supernatant was taken and blow dried with air streamat 40° C.; the residue was dissolved with 150 μl […], and subjected to LC-MS/MS analysis.
30 ICR male mice were randomly divided into […], five mices each group, including Mol 10 mg/kg oral group and 1.0 mg/kg tail intravenous injection group. For oral group, before administration, the animals were fasted for 12 h, with free access to water; 0.08, 0.25, 0.5, 1, 2, 4, 6, 8, 12 and 24 h after intragastrical administration, 0.1 ml of orbital venous sinus blood was taken, placed in anticoagulation tube containing heparin sodium, and subjected to 3000 g centrifugation for 15 min; and then, the plasma was taken and stored in a −20° C. refrigerator. […]
Pharmacokinetic parameters were calculated using non-compartment model of Winnonlin® software (Version 5.2.1, USA). Cmax is the measured maximum plasma concentration, Tmax is time to peak plasma concentration after oral administration, t1/2 is drug terminal elimination halflife, MRT is average residence time of drug in vivo, the area AUC0-t under plasma concentration—time curve is calculated by trapezoidal method.
Bioavailability is calculated as follows: […]
AUC: Area (h*ng/ml) under the curve; D: dose (mg/kg)

[1] = male, ICR, mouse, plasma, po, 10 mg/kg, Po 10 mg/kg, Mean ± SD, n = 3
[2] = male, ICR, mouse, plasma, po, 10 mg/kg, Po 10 mg/kg, individual mice 1-3
[3] = male, ICR, mouse, plasma, po, 10 mg/kg, oral 10 mg/kg, Mean, read-out: Plasma concentration of active compound
[4] = male, ICR, mouse, plasma, po, 10 mg/kg, oral 10 mg/kg, individual mice 1-3, read-out: Plasma concentration of active compound

Molecule `CSc1nccc(N2CCC(N(C)Cc3ccc(C#N)cc3)CC2)n1` [Example 36, N-methyl-N-(4-cyanobenzyl)-N-[1-(2-methylthiopyrimidin-4-yl)piperidin-4-yl]amine] has a concentration at 0.17 h (male, ICR, mouse, plasma, iv, 1 mg/kg, intravenous 1.0 mg/kg, Mean, read-out: Plasma concentration of active compound) of 62.8 ng/mL, a concentration at 0.17 h (male, ICR, mouse, plasma, iv, 1 mg/kg, intravenous 1.0 mg/kg, individual mice 4-6, read-out: Plasma concentration of active compound) of 79.6 ng/mL and a concentration at 0.5 h (male, ICR, mouse, plasma, iv, 1 mg/kg, intravenous 1.0 mg/kg, 0.5 h, Mean, read-out: Plasma concentration of active compound) of 31.5 ng/mL. The concentration at 1 h (male, ICR, mouse, plasma, iv, 1 mg/kg, intravenous 1.0 mg/kg, 1.0 h, Mean, read-out: Plasma concentration of active compound) was 7.02 ng/mL, the concentration at 2 h (male, ICR, mouse, plasma, iv, 1 mg/kg, intravenous 1.0 mg/kg, 2.0 h, Mean, read-out: Plasma concentration of active compound) was 1.77 ng/mL and the concentration at 4 h (male, ICR, mouse, plasma, iv, 1 mg/kg, intravenous 1.0 mg/kg, 4.0 h, Mean, read-out: Plasma concentration of active compound) was 2.26 ng/mL. For the same molecule, the concentration at 4 h (male, ICR, mouse, plasma, iv, 1 mg/kg, intravenous 1.0 mg/kg, 4.0 h, individual mice 4-6, read-out: Plasma concentration of active compound) was 2.3 ng/mL, the concentration at 6 h (male, ICR, mouse, plasma, iv, 1 mg/kg, intravenous 1.0 mg/kg, 6.0 h, Mean, read-out: Plasma concentration of active compound) was 7.53 ng/mL and the concentration at 6 h (male, ICR, mouse, plasma, iv, 1 mg/kg, intravenous 1.0 mg/kg, 6.0 h, individual mice 4-6, read-out: Plasma concentration of active compound) was 7.53 ng/mL. For the same molecule, the concentration at 8 h (male, ICR, mouse, plasma, iv, 1 mg/kg, intravenous 1.0 mg/kg, 8.0 h, Mean, read-out: Plasma concentration of active compound) was 0.84 ng/mL, the concentration at 8 h (male, ICR, mouse, plasma, iv, 1 mg/kg, intravenous 1.0 mg/kg, 8.0 h, individual mice 4-6, read-out: Plasma concentration of active compound) was 0.7 ng/mL and the bioavailability (male, ICR, mouse, plasma, oral, 10 mg/kg, Po 10 mg/kg vs IV 1.0 mg/kg, Mean ± SD, n = 3, read-out: F (absolute bioavailability)) was 55.5 ± 10.9%. It also gave an AUC(0-inf) [1] of 280 ± 55.8 ng·h/mL, an AUC(0-t) [1] of 275 ± 54.1 ng·h/mL and a half-life [1] of 2.72 ± 2.47 h. It also gave a Cmax [1] of 260 ± 63.2 ng/mL, an MRT last (male, ICR, mouse, plasma, po, 10 mg/kg, Po 10 mg/kg, Mean ± SD, n = 3, read-out: MRT0-t) of 1.58 ± 0.86 h and an MRT inf (male, ICR, mouse, plasma, po, 10 mg/kg, Po 10 mg/kg, Mean ± SD, n = 3, read-out: MRT0-∞) of 1.95 ± 1.42 h. For the same molecule, the Tmax (male, ICR, mouse, plasma, po, 10 mg/kg, Po 10 mg/kg, Mean ± SD, n = 3, read-out: Tmax) was 0.44 ± 0.49 h, the AUC(0-inf) [2] was 216 ng·h/mL and the AUC(0-t) [2] was 214 ng·h/mL. For the same molecule, the Cmax [2] was 197 ng/mL, the concentration at 0.08 h (male, ICR, mouse, plasma, po, 10 mg/kg, oral 10 mg/kg, 0.08 h, Mean, read-out: Plasma concentration of active compound) was 141 ng/mL and the concentration at 0.25 h (male, ICR, mouse, plasma, po, 10 mg/kg, oral 10 mg/kg, 0.25 h, Mean, read-out: Plasma concentration of active compound) was 203 ng/mL. The concentration at 0.5 h (male, ICR, mouse, plasma, po, 10 mg/kg, oral 10 mg/kg, 0.50 h, Mean, read-out: Plasma concentration of active compound) was 97.5 ng/mL, the concentration at 1 h (male, ICR, mouse, plasma, po, 10 mg/kg, oral 10 mg/kg, 1.0 h, Mean, read-out: Plasma concentration of active compound) was 147 ng/mL and the concentration at 2 h (male, ICR, mouse, plasma, po, 10 mg/kg, oral 10 mg/kg, 2.0 h, Mean, read-out: Plasma concentration of active compound) was 23.5 ng/mL. The concentration at 4 h (male, ICR, mouse, plasma, po, 10 mg/kg, oral 10 mg/kg, 4.0 h, Mean, read-out: Plasma concentration of active compound) was 7.75 ng/mL, the concentration at 6 h (male, ICR, mouse, plasma, po, 10 mg/kg, oral 10 mg/kg, 6.0 h, Mean, read-out: Plasma concentration of active compound) was 7.36 ng/mL and the concentration at 8 h (male, ICR, mouse, plasma, po, 10 mg/kg, oral 10 mg/kg, 8.0 h, Mean, read-out: Plasma concentration of active compound) was 2.71 ng/mL. For the same molecule, the concentration at 12 h [3] was 0.5 ng/mL, the concentration at 12 h [4] was 0.5 ng/mL and the concentration at 24 h [3] was 1.32 ng/mL. For the same molecule, the concentration at 24 h [4] was 1.32 ng/mL, the “Plasma concentration of active compound” value (oral 10 mg/kg, 0.08 h, individual mice 1-3, 10 mg/kg) was 196.99 ng/mL and 152.22 ng/mL and 72.70 ng/mL and the “Plasma concentration of active compound” value (oral 10 mg/kg, 0.25 h, individual mice 1-3, 10 mg/kg) was 126.87 ng/mL and 158.18 ng/mL and 323.37 ng/mL. For the same molecule, the “Plasma concentration of active compound” value (oral 10 mg/kg, 0.50 h, individual mice 1-3, 10 mg/kg) was 41.24 ng/mL and 119.50 ng/mL and 131.86 ng/mL, the “Plasma concentration of active compound” value (oral 10 mg/kg, 1.0 h, individual mice 1-3, 10 mg/kg) was 107.54 ng/mL and 260.48 ng/mL and 71.98 ng/mL and the “Plasma concentration of active compound” value (oral 10 mg/kg, 2.0 h, individual mice 1-3, 10 mg/kg) was 33.99 ng/mL and 12.86 ng/mL and 23.69 ng/mL. For the same molecule, the “Plasma concentration of active compound” value (oral 10 mg/kg, 4.0 h, individual mice 1-3, 10 mg/kg) was 7.47 ng/mL and 1.17 ng/mL and 14.60 ng/mL, the “Plasma concentration of active compound” value (oral 10 mg/kg, 6.0 h, individual mice 1-3, 10 mg/kg) was 1.28 ng/mL and 13.43 ng/mL and the “Plasma concentration of active compound” value (oral 10 mg/kg, 8.0 h, individual mice 1-3, 10 mg/kg) was 0.54 ng/mL and 4.88 ng/mL.

Source: patent US10023565B2, “N,N′ substituted piperidinamine compounds, and preparation method and usage thereof” (Institute of Pharmacology and Toxicology Academy of …, priority 2013, dated 2018)
